Test results published in PubChem BioAssay (NCI).
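A five-concentration, 48-hour dose response in 96-well plates underlies each endpoint, interpolated linearly between surrounding concentrations. The concentration for full growth arrest is given as TGI.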

Columns and labels:
Assay in all cases: inhibition of tumour cell growth, NCI panel, 48 h
786-0 renal = tested on: 786-0 renal
A549 NSCLC = tested on: A549 NSCLC
ACHN renal = tested on: ACHN renal
EKVX NSCLC = tested on: EKVX NSCLC
HCT-15 colon = tested on: HCT-15 colon
HL-60(TB) leukemia = tested on: HL-60(TB) leukemia
HOP-92 NSCLC = tested on: HOP-92 NSCLC
K-562 leukemia = tested on: K-562 leukemia
KM12 colon = tested on: KM12 colon
MALME-3M melanoma = tested on: MALME-3M melanoma
MDA-MB-231 breast = tested on: MDA-MB-231 breast
MOLT-4 leukemia = tested on: MOLT-4 leukemia
OVCAR-5 ovarian = tested on: OVCAR-5 ovarian
RXF 393 renal = tested on: RXF 393 renal
SF-539 CNS = tested on: SF-539 CNS
SK-MEL-28 melanoma = tested on: SK-MEL-28 melanoma

SMILES	TGI (786-0 renal) [µM]	TGI (A549 NSCLC) [µM]	TGI (ACHN renal) [µM]	TGI (EKVX NSCLC) [µM]	TGI (HCT-15 colon) [µM]	TGI (HL-60(TB) leukemia) [µM]	TGI (HOP-92 NSCLC) [µM]	TGI (K-562 leukemia) [µM]	TGI (KM12 colon) [µM]	TGI (MALME-3M melanoma) [µM]	TGI (MDA-MB-231 breast) [µM]	TGI (MOLT-4 leukemia) [µM]	TGI (OVCAR-5 ovarian) [µM]	TGI (RXF 393 renal) [µM]	TGI (SF-539 CNS) [µM]	TGI (SK-MEL-28 melanoma) [µM]
O=C(NC1(c2cc3ccccc3s2)CCCCC1)C1CCC1	> 100	> 100	> 100	> 100	> 100	> 100	> 100	> 100	> 100	> 100	> 100	> 100	> 100	> 100	> 100	> 100
CC(C)OC(=O)c1ccc(CCC2=CC(=O)C=CC2=O)cc1	15.6	> 79.7	18.8	23.8	25.1	7.56	13.9	> 37.1	27	15.9	23.2	8.05	29.4	25.1	17.1	32.9
CC#CC(O)(C(=O)OCCCN(C)C)C1CCCCC1 (stereo not given)	> 100	> 100	> 100	> 100	> 100	> 100	> 100	> 100	> 100	> 100	> 100	> 100	> 100	> 100	> 100	> 100
Cc1cc(S(=O)(=O)Nc2n[nH]c(Nc3ccc(Cl)cc3)n2)c(S)cc1Cl	> 100	> 100	> 100	> 100	> 100	> 100	> 100	> 100	> 100	> 100	> 100	> 100	> 100	> 100	> 100	> 100
CCCCNC(=O)c1cc2c(cc1Cl)Sc1nccn1S2(=O)=O	> 100	> 100	> 100	> 100	> 100	> 100	> 100	> 100	> 100	> 100	> 100	> 100	> 100	> 100	> 100	> 100
O=c1cc(N=Nc2ccc(Br)cc2)[nH]c(=S)[nH]1	17.1	> 100	40.8	39.6	29.8	58.6	50.5	54.4	> 100	30.8	34.3	63.3	> 100	45.4	> 100	53.2
CN(C)CCCc1cccc2[nH]c3c(c12)CN(C)CC3	> 100	> 100	> 100	> 100	> 100	> 100	> 100	> 100	> 100	> 100	> 100	> 100	> 100	> 100	> 100	> 100
CC(NC(=O)/C(=C/c1ccccc1)NC(=O)c1ccccc1)C(=O)O (stereo not given)	> 100	> 100	> 100	> 100	> 100	> 100	> 100	> 100	> 100	> 100	> 100	> 100	> 100	> 100	96.6	> 100
CCCCCCCCCCCCCCCCCc1cccc(OCOCCOC)c1C(=O)O	35.2	42.1	35.2	38.7	41.2	50.8	35.8	> 83	34.1	22.2	37.4	44.1	35	37.7	30.1	38.2
CN(C)c1ccc(C=Nc2ccc(-c3nc4ccccc4[nH]3)cc2)cc1	> 100	> 100	> 100	> 100	> 100	53.3	> 100	> 100	> 100	> 100	> 100	> 100	> 100	80	> 100	> 100
O=c1[nH]c2nnc(COc3ccc(Cl)cc3Cl)n2nc1Cc1ccccc1	43.8	> 100	> 100	> 100	> 100	> 100	69.5	> 100	> 100	> 100	> 100	> 100	> 100	44.6	39.8	> 100
CC(ON(C(c1ccccc1)C(C)C)C(C)(C)C)c1ccccc1 (stereo not given)	30.7	84.9	29.3	29	> 100	36.7	40.3	49.8	41.8	71.6	39.3	35.9	29.8	31.2	43.7	47.5
C=CCN(c1cc(OCc2ccccc2)c2[nH]cc(C)c2c1)S(C)(=O)=O	> 100	> 100	> 100	67.9	> 100	> 100	> 100	> 100	> 100	88.7	> 100	> 100	> 100	71.4	> 100	> 100
Cc1cn([C@@H]2C[C@@H]2CO)c(=O)[nH]c1=O	> 100	> 100	> 100	> 100	> 100	> 100	> 100	> 100	> 100	> 100	> 100	> 100	> 100	> 100	> 100	> 100
COc1ccccc1NC(=S)NN=C(C)c1cccc(C(C)=NNC(=S)Nc2ccccc2OC)n1	37.7	> 100	64.3	> 100	> 100	99.5	97.7	> 100	> 100	40.6	68.9	74.5	> 100	47.6	62.4	> 100
CC(O)(Cc1ccccc1C#N)Cc1ccccc1C#N	> 100	> 100	> 100	> 100	> 100	97.7	> 100	> 100	> 100	> 100	> 100	> 100	> 100	> 100	> 100	> 100
O=c1ccn(CC2(CO)CCC2)c(=O)[nH]1	> 100	> 100	> 100	> 100	> 100	> 100	> 100	> 100	> 100	> 100	> 100	> 100	> 100	> 100	> 100	> 100
Cc1cc(C)n(CC(Cn2nc(C)cc2C)=C(/C(Cl)=C(/Cl)Nc2ccc([N+](=O)[O-])cc2)[N+](=O)[O-])n1	18.9	13.3	11.6	13.8	> 31.5	4.3	8.48	11.5	6.55	13.4	25.5	4.77	33.2	12.3	9.27	29
c1ccc2c(Cc3[nH]c4ccccc4c3Cc3c[nH]c4ccccc34)c[nH]c2c1	4.25	21.6	> 36	11.4	10.5	4.58	18.1	10.5	4.84	6.3	5.29	12	8.93	5.8	7.03	23.9
O=C1CSC(/C=C/c2ccccc2)N1c1nc2cc3sc(N4C(=O)CSC4/C=C/c4ccccc4)nc3cc2s1 (stereo not given)	> 100	> 100	> 100	> 80.9	> 100	> 100	> 100	> 100	> 100	> 100	> 100	> 100	> 100	> 100	9.61	> 100
CC(Nc1ncc2c(n1)-c1ccccc1OC2)C(=O)O (stereo not given)	> 100	> 100	> 100	> 100	> 100	26.1	> 100	> 100	> 100	> 100	> 100	> 100	> 100	> 100	> 100	> 100
C=C1C(=O)O[C@H]2C/C(C)=C/CC[C@@]3(C)O[C@](C)(CC[C@@H]3I)[C@@H](I)C[C@@H]12	10.9	18.2	13.6	14.3	12.2	20.2	13	29.9	18.5	14.7	14.7	13.6	26.2	12.7	14.4	14.1
CC(=O)Nc1c(S(=O)(=O)c2ccccc2)c(C)c(C)n1CCN(C)C	> 100	> 100	> 100	> 100	> 100	> 100	> 100	> 100	> 100	> 100	> 100	> 100	> 100	> 100	> 100	> 100
CC(C)C1C(=O)N(c2c(F)c(F)c(F)c(F)c2F)C(=S)N1CCS(=O)c1ccccc1 (stereo not given)	32.1	40.1	37.1	31.3	31.8	19.2	34.8	39.6	32.6	30.2	32	49.7	32.5	35.4	36.2	30.8
Nc1ccc2c(O)cc(=O)[nH]c2n1	> 100	> 100	> 100	> 100	> 100	> 100	> 100	> 100	> 100	> 100	> 100	> 100	> 100	> 100	> 100	> 100
